Drawing on ChEMBL document CHEMBL1143281, “New analogues of agmatine with higher affinity to imidazoline receptors” (Bioorg Med Chem Lett, 2009), this text covers Ki and IC50 for 12 compounds.

The target in assay [1] is T1, Adrenergic receptor alpha-2 (Rattus norvegicus, UniProt P22086+P19328+P22909).
T1 sequence (P22086 whole entry): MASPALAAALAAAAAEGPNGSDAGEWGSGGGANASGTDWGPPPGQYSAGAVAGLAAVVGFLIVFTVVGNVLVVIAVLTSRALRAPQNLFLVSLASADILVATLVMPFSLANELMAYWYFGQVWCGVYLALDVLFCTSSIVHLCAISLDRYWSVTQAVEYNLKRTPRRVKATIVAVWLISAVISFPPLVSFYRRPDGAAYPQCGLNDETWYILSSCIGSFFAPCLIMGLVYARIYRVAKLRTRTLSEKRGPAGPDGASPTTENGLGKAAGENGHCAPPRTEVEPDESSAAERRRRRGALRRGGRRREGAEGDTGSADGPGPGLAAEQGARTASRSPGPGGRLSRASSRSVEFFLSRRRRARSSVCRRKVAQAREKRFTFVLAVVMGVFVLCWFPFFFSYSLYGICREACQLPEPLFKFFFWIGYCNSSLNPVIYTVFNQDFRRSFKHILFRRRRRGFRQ
T1 sequence (P19328 whole entry): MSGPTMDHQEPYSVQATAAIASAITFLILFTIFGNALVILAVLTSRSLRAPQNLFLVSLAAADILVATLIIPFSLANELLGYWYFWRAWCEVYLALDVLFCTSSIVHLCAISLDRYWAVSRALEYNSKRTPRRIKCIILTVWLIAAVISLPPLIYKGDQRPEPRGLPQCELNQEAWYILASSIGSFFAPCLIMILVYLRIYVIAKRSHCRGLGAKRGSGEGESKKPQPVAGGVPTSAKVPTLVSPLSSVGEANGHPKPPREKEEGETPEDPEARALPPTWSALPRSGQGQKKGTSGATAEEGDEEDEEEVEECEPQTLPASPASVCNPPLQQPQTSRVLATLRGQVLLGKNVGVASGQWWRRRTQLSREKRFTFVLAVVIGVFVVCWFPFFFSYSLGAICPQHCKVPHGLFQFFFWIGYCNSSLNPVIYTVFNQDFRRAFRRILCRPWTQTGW
T1 sequence (P22909 whole entry): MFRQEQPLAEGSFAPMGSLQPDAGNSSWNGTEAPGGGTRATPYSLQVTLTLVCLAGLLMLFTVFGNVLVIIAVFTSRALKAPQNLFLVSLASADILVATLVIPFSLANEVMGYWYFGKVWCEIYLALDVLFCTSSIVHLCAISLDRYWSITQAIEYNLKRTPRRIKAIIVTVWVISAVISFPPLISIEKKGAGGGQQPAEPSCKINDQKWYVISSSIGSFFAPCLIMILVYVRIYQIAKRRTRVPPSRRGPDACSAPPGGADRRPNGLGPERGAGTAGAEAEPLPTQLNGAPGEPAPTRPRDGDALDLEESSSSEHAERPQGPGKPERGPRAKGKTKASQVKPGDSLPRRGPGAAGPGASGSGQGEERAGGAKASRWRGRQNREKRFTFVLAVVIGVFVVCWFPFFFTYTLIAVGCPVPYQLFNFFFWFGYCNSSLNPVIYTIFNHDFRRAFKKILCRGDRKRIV
The assay can be described thus: Displacement of [3H]RX821002 from alpha2 adrenoceptor in Sprague-Dawley rat kidney by liquid scintillation counting. It counts as tissue-based. On the technique in general: Loss of bound radioactivity is the signal in a displacement assay; it reports binding, not function.

The target of assay [2] is T2, Nischarin (Rattus norvegicus, UniProt Q4G017). The assay can be described thus: Displacement of [3H]clonidine from imidazoline I1 receptor in Sprague-Dawley rat kidney by liquid scintillation counting.
T2 sequence (Q4G017 whole entry): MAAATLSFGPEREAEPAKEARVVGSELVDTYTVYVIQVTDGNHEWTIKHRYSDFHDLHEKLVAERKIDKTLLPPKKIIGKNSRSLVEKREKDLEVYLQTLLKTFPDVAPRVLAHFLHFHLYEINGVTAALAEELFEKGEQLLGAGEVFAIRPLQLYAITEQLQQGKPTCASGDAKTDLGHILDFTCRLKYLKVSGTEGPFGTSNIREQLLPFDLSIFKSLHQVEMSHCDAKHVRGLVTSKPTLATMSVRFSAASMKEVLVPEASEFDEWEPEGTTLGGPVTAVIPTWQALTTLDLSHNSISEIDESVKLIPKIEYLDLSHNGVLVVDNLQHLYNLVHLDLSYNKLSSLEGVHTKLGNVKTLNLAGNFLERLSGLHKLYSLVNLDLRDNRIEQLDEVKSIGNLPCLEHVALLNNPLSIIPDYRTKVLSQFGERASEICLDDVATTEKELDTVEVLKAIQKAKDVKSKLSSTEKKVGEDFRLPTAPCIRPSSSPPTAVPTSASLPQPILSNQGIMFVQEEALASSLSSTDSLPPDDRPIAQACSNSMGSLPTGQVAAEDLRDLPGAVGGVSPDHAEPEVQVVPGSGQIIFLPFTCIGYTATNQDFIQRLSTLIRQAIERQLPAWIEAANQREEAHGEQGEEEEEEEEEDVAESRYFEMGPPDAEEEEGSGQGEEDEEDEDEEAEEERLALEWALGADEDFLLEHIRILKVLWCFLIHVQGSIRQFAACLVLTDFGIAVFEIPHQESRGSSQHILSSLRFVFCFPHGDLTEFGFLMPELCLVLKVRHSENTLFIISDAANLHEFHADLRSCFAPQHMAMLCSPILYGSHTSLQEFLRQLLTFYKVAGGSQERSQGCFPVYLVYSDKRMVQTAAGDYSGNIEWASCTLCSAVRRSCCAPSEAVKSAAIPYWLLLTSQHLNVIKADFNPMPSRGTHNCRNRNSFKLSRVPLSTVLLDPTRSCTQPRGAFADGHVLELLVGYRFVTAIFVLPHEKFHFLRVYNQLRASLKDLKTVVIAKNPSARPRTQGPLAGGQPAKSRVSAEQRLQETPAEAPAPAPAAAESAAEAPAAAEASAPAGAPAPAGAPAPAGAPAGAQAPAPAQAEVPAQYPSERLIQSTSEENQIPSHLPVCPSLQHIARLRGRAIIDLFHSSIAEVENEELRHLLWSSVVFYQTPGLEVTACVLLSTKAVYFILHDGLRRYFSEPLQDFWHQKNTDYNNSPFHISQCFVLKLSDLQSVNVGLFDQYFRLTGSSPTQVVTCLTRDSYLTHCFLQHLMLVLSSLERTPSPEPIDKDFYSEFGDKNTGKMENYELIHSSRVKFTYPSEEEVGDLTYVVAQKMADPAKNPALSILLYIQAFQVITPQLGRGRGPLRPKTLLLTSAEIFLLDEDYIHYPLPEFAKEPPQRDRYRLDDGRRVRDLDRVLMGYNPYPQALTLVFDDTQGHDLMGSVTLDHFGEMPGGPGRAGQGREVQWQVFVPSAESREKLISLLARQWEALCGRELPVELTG
Assay [3] is described as follows: Displacement of [3H]2BFI from imidazoline I2 receptor in Sprague-Dawley rat brain by liquid scintillation counting.
Assay [4] is described as follows: Displacement of [3H]2BFI from imidazoline I2 receptor in Wistar rat brain by liquid scintillation counting.
In assay [5] the target is T1, Adrenergic receptor alpha-2. In words: Displacement of [3H]RX821002 from alpha2 adrenoceptor in Wistar rat kidney by liquid scintillation counting. The class given is tissue-based.
Assay [6] addresses T2, Nischarin. The assay can be described thus: Displacement of [3H]clonidine from imidazoline I1 receptor in Wistar rat kidney by liquid scintillation counting.

A value given as a limit tells only on which side of the number the result lay.

For the compound `CN(C)CC[C@H]1CN=CN1.Cl.Cl`, the Ki in assay [1] and in assay [3] was above 100 µM each time. Further, the IC50 (commonly the concentration that inhibits the measured activity by half) in assay [2] stood at 64 µM.

For `Br.NCC[C@@H]1CN=C(N)N1`, the Ki (usually a dissociation constant, usually derived from enzyme kinetics or from competition with a known ligand) in assay [1] was 18.82 µM; in assay [3] it was above 100 µM. Further, in assay [2], the IC50 was above 100 µM.

Regarding `Br.CC1=NC[C@H](CCN)N1`, the figures for the Ki in assay [1] and in assay [3] were 76.44 µM and 1.84 µM, respectively. This compound gave an IC50 in assay [2] of 115 µM.

In the case of `Br.CC(=O)NCC[C@@H]1CN=C(N)N1`, the Ki in assay [1] and in assay [3] was above 100 µM each time. In addition, the IC50 in assay [2] came out at 383 µM.

On to `CC(=O)NCC[C@H]1CN=CN1.CC(=O)O`, for which the Ki in assay [1] and in assay [3] was above 100 µM throughout. Moreover, in assay [2], the IC50 worked out at 213 µM.

For the compound `Br.NCC[C@H]1CN=C(N)N1`, the Ki in assay [1] came out at 11.77 µM; in assay [3] it was 55 µM. The IC50 in assay [2] was 0.477 µM.

With `Br.NCC[C@@H]1CN=CN1`, the Ki was 62.07 µM in assay [1] and above 100 µM in assay [3]. The compound further registered an IC50 in assay [2] of 16.5 µM.

As for `Br.CN(C)CC[C@H]1CN=C(N)N1`, the figures for the Ki in assay [1] and in assay [3] were above 52.86 µM and above 100 µM, respectively. In assay [2], the IC50 is 44.8 µM.

As to `Br.NCC[C@H]1CN=CN1`, the Ki in assay [1] was above 100 µM; in assay [3] it was 65.8 µM. The compound also registered an IC50 in assay [2] above 100 µM.

For the compound `Br.CC(=O)NCC[C@H]1CN=C(N)N1`, the Ki in assay [1] and in assay [3] was above 100 µM throughout. For the same compound, the IC50 in assay [2] worked out at 235 µM.

In the case of `NCCCCN=C(N)N` [AGMATINE], the Ki in assay [4] was found to be 417 µM; in assay [5], 31.7 µM. In addition, in assay [6], the IC50 came to 36.5 µM.

`Clc1cccc(Cl)c1NC1=NCCN1` [CLONIDINE] displayed an IC50 in assay [2] of 0.366 µM. In assay [3], the Ki was found to be 0.364 µM.
